Measurements as given in patent US20240041733A1, “DENTAL CARE COMPOSITION AND METHOD OF PROMOTING CALCIFICATION IN LIVING BODY TISSUE” (KINJIRUSHI CO., LTD., priority 2020, published 2024).
Entries after “also recorded” stand apart in the source; their conditions may differ.

Tests used:
[1] = tested on: Human odontoblast (HOB) cells; assay: Evaluation of calcification promoting action using human odontoblasts (Alizarin red and von Kossa staining); type: cell-based; settings: for calcification promoting action: calcification medium with additive, Alizarin red / von Kossa staining; for relative calcification promoting action (comparison among compounds): compared by concentration of particularly high action and by extent of staining at 50 μM
Experimental: 1. Cultivation of Human Odontoblast (Human Odontoblast (HOB) Cells)
HOB cells are seeded in a T75 flask and cultivated until confluency was achieved. A culture medium (hereinafter referred to as “regular medium”) was prepared by adding 10% of fetal bovine serum (FBS) (Life Technologies Ltd.; Product No. 10437-028), 1% of penicillin-streptomycin (Life Technologies Ltd.; Product No. 15140-122), 1% of amphotericin B (Sigma-Aldrich, Product No. A2942-100ML) to MEMα (Life Technologies Ltd.; Product No. 12561-049, 12561-056). Cultivation was performed under an environment with a temperature of 37° C. and 5% of CO2.
Then the HOB Cells were seeded on an adherent cell cultivation plate (Sumitomo Bakelite Co., Ltd) such that the cell density per 1 well was 1.78 to 2.56×10^5 cells/mL, and cultivated under the same environment. As the adherent cell cultivation plate, plates having 6 to 96 wells were appropriately used.
Four days later, each culture medium was changed from the regular medium to a calcification medium, or to a culture medium (hereinafter, referred to as “additive containing calcification medium”) prepared by adding additional components shown in the following Table 4 and Table 5 to the calcification medium so as to achieve the concentrations shown in Table 4 and Table 5. The calcification medium is prepared by adding L (+)-ascorbic acid (Wako Pure Chemical Industries, Ltd. (currently Fujifilm Wako Pure Chemical Corporation), Product No. 016-04805) to the aforementioned regular mediums such that the concentration in the calcification medium (that is, the final concentration) was 50 μg/mL, and by adding β-glycerophosphoric acid (Fujifilm Wako Pure Chemical Corporation, Product No. 191-02042) to the aforementioned regular mediums such that the concentration in the calcification medium (that is, the final concentration) is 10 mM.
Then, the cultivation was performed under the environment at 37° C. with 5% of CO2 for 21 or 28 days while exchanging the calcification medium or the additive containing calcification medium twice a week. Then the following staining was performed.
Alizarin red staining and von Kossa staining were performed to evaluate calcification promoting effect.
Each well was washed twice using Dulbecco's phosphate buffered saline (DPBS) (Life Technologies Ltd.; Product No. 14190-144) the amount of which was equal to the specified amount of culture medium in the adherent cell cultivation plate. After removing the DPBS from each well, 4% paraformaldehyde phosphate buffer solution (Fujifilm Wako Pure Chemical Corporation, Product No. 163-20145), the amount of which was equal to a half the amount of the specified amount of the culture medium, was introduced to each well, and each well was left for five minutes at a room temperature.
Then, each well was washed twice using the DPBS the amount of which was equal to the specified amount of the culture medium. After removing the DPBS from each well, Alizarin red staining solution, the amount of which was equal to a half the amount of the specified amount of the culture medium, was introduced to each well, and each well was left for ten minutes. The Alizarin red staining solution was prepared by dissolving a commercially available staining solution (Product name: “Alizarin red S”, Wako Pure Chemical Industries, Ltd. (currently Fujifilm Wako Pure Chemical Corporation), Product No. 011-01192) with ultrapure water (Milli-Q (registered trademark) water), and the pH was adjusted to be within a range from 6.36 to 6.40 using ammonium hydroxide solution.
Each well was then washed five times using the ultrapure water (same as above), the amount of which was equal to the specified amount of the culture medium.
Each well was washed three times using the Dulbecco's phosphate buffered saline (DPBS) (same as above) the amount of which was equal to the specified amount of the culture medium in the adherent cell cultivation plate.

[2] = used in human, dental clinical practices; cited from earlier work

C=CCN=C=S [AITC, allyl isothiocyanate, reference compound]
calcification promoting action ([1]; HOB cells, 21 or 28 days): completely no calcification promoting action | calcification action ([1]; range up to 500 μM): not exhibited

CCN[C@H]1C[C@H](C)S(=O)(=O)c2sc(S(N)(=O)=O)cc21 [dorzolamide, reference compound]
effect on calcification when used with 6-methylsulfinylhexyl isothiocyanate ([1]; dorzolamide, inhibitor of carbonic anhydrase, used with 6-MSITC): calcification is inhibited

C[S+]([O-])CCCCCCCCN=C=S (stereo not shown) [8-MSITC, 8-methylsulfinyloctyl isothiocyanate]
calcification promoting action ([1]; HOB cells, 21 or 28 days): possess calcification promoting action | relative calcification promoting action (comparison among compounds) [1]: particularly high; also recorded: about the same as the calcification promoting action of the 4-MSITC

CS(=O)(=O)CCCCCCN=C=S [6-MSFITC, 6-methylsulfonylhexyl isothiocyanate]
calcification promoting action ([1]; HOB cells, 21 or 28 days): possess calcification promoting action | relative calcification promoting action (comparison among compounds) [1]: particularly high; also recorded: higher calcification promoting action than the 4-MSITC

[Ca+2].[OH-].[OH-] [calcium hydroxide]
normal duration of time until calcification occurs [2]: three months

C[S+]([O-])CCCCN (stereo not shown) [4-MS amine, 4-methylsulfinylbutyl amine, reference compound]
calcification promoting action ([1]; HOB cells, 21 or 28 days): completely no calcification promoting action

S=C=NCCc1ccccc1 [PITC, phenethyl isothiocyanate]
concentration at which particularly high calcification promoting action was observed ([1]; HOB cells, 21 or 28 days, staining): ≥ 500 µM | calcification promoting action ([1]; HOB cells, 21 or 28 days): possess calcification promoting action

C[S+]([O-])CCCCN=C=S (stereo not shown) [4-MSITC, 4-methylsulfinylbutyl isothiocyanate]
calcification promoting action ([1]; HOB cells, 21 or 28 days): possess calcification promoting action | relative calcification promoting action (comparison among compounds) [1]: particularly high
